From patent US10160747B2, “Compounds and methods for kinase modulation, and indications therefor” (Plexxikon Inc., priority 2016, dated 2018)
pIC50: −log10 of the molar value.

What was measured:
FLT3-D835Y = target: T1, FLT3-D835Y (Homo sapiens, UniProt P36888, D835Y); test: FLT3-D835Y recombinant enzyme kinase assay (AlphaScreen); format: biochemical; details: 8 pt, GMean
T1 construct: purchased Invitrogen PV3967
T1 sequence (P36888 27-993 D835Y): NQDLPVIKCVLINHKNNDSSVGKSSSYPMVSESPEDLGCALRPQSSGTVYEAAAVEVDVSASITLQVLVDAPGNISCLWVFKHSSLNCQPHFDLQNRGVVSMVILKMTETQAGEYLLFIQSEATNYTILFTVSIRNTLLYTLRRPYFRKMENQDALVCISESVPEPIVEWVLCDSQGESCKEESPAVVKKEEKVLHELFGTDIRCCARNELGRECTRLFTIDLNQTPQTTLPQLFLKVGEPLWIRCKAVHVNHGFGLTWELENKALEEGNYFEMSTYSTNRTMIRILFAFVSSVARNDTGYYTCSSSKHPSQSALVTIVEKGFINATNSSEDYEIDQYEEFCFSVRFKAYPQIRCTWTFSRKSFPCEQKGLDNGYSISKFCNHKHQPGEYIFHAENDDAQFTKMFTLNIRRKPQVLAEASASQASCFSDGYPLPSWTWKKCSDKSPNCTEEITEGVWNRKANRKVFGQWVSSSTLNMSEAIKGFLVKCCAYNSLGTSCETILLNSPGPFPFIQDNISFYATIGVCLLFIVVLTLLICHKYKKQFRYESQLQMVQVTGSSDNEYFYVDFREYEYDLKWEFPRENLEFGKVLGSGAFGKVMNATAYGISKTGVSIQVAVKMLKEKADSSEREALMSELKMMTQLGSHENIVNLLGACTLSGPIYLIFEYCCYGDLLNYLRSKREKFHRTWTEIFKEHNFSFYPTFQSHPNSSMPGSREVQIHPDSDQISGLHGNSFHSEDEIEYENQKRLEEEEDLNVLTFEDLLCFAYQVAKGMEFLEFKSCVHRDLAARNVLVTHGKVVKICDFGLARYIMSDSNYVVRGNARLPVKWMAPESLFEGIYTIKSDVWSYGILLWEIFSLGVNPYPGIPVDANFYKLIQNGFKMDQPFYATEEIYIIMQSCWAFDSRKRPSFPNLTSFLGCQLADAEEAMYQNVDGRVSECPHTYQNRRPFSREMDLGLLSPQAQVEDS
How it was run: (§1)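 Recombinant kinase phosphorylates 30 nM biotinylated poly(Glu4-Tyr) peptide; ATP is 10 μM for FLT3-ITD and FLT3-D835Y, 100 μM for c-KIT. Phosphotyrosine detected by AlphaScreen (streptavidin donor, PY20 acceptor beads, 10 μg/mL), 580 nm signal after 680 nm excitation; IC50 from signal decrease.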

c-KIT = target: T2, c-KIT (Homo sapiens, UniProt P10721); test: c-KIT recombinant enzyme kinase assay (AlphaScreen); format: biochemical; details: 100 ATP, 8 pt
T2 construct: purchased Millipore 14-559K
T2 sequence (P10721 26-976): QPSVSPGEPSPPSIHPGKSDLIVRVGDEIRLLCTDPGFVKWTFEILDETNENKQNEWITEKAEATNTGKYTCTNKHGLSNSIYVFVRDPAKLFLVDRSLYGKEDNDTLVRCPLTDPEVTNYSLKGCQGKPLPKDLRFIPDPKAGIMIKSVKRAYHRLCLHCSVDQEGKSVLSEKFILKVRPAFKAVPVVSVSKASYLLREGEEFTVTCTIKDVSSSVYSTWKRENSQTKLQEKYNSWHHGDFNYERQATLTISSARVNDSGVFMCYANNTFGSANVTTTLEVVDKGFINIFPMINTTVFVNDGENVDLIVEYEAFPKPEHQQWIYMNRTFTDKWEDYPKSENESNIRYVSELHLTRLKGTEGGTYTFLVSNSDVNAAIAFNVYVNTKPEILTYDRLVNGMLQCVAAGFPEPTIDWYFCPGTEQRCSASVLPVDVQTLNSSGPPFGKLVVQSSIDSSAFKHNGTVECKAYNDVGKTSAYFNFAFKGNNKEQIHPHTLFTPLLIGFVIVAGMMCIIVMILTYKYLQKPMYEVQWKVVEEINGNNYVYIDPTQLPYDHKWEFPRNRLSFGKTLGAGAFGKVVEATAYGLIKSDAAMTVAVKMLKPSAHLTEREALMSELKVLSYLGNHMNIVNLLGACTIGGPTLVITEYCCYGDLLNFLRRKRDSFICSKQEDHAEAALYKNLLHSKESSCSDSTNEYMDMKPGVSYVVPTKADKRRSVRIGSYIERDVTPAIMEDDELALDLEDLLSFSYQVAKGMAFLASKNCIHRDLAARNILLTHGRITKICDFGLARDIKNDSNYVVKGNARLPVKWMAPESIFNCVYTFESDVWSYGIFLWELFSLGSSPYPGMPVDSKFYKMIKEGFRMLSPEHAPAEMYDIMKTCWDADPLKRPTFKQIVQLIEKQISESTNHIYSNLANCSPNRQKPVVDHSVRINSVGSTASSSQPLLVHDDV
How it was run: as §1

| Structure (SMILES) | pIC50 (FLT3-D835Y) | pIC50 (c-KIT) |
| --- | --- | --- |
| Cc1cc(CC(=O)Nc2cccc(C(F)(F)F)c2)ccc1-c1cnc2[nH]c(-c3ccccc3)cc2c1 [Compound P-0002, 2-[3-methyl-4-(2-phenyl-1H-pyrrolo[2,3-b]pyridin-5-yl)phenyl]-N-[3-(trifluoromethyl)phenyl]acetamide] | 5.00 to 10.00 | – |
| COc1ncc(NC(=O)Cc2ccc(-c3cnc4[nH]cc(F)c4c3)cc2F)cc1C(F)(F)F [Compound P-0034, 2-[2-fluoro-4-(3-fluoro-1H-pyrrolo[2,3-b]pyridin-5-yl)phenyl]-N-[6-methoxy-5-(trifluoromethyl)-3-pyridyl]acetamide] | 5.00 to 10.00 | 5.00 to 10.00 |
| COc1ncc(NC(=O)Cc2ccc(-c3cnc4[nH]cc(C(C)=O)c4c3)cc2F)cc1C(F)(F)F [Compound P-0035, 2-[4-(3-acetyl-1H-pyrrolo[2,3-b]pyridin-5-yl)-2-fluoro-phenyl]-N-[6-methoxy-5-(trifluoromethyl)-3-pyridyl]acetamide] | 5.00 to 10.00 | 5.00 to 10.00 |
| COc1ncc(NC(=O)Cc2ccc(-c3cnc4[nH]cc(C(=O)C5CC5)c4c3)cc2F)cc1C(F)(F)F [Compound P-0036, 2-[4-[3-(cyclopropanecarbonyl)-1H-pyrrolo[2,3-b]pyridin-5-yl]-2-fluoro-phenyl]-N-[6-methoxy-5-(trifluoromethyl)-3-pyridyl]acetamide] | 5.00 to 10.00 | 5.00 to 10.00 |
| COc1ncc(NC(=O)Cc2ccc(-c3cnc(Nc4cnn5ccccc45)nc3)cc2F)cc1C(F)(F)F [Compound P-0037, 2-[2-fluoro-4-[2-(pyrazolo[1,5-a]pyridin-3-ylamino)pyrimidin-5-yl]phenyl]-N-[6-methoxy-5-(trifluoromethyl)-3-pyridyl]acetamide] | 5.00 to 10.00 | 5.00 to 10.00 |
| CC(C)(C)c1ccc(NC(=O)Cc2ccc(-c3cnc4[nH]cc(F)c4c3)cc2F)cn1 [Compound P-0043, N-(6-tert-butyl-3-pyridyl)-2-[2-fluoro-4-(3-fluoro-1H-pyrrolo[2,3-b]pyridin-5-yl)phenyl]acetamide] | 5.00 to 10.00 | 5.00 to 10.00 |
| O=C(Cc1ccc(-c2cnc3[nH]cc(F)c3c2)cc1F)Nc1cc(Cl)c(C2CC2)cn1 [Compound P-0044, N-(4-chloro-5-cyclopropyl-2-pyridyl)-2-[2-fluoro-4-(3-fluoro-1H-pyrrolo[2,3-b]pyridin-5-yl)phenyl]acetamide] | 5.00 to 10.00 | 5.00 to 10.00 |
| COc1ncc(NC(=O)Cc2ccc(-c3cnc4[nH]cc(Cl)c4n3)cc2F)cc1C(F)(F)F [Compound P-0047, 2-[4-(7-chloro-5H-pyrrolo[2,3-b]pyrazin-2-yl)-2-fluoro-phenyl]-N-[6-methoxy-5-(trifluoromethyl)-3-pyridyl]acetamide] | 5.00 to 10.00 | 5.00 to 10.00 |
| COc1ncc(NC(=O)Cc2ccc(-c3cnc4[nH]cc(F)c4c3)c(F)c2)cc1C(F)(F)F [Compound P-0048, 2-[3-fluoro-4-(3-fluoro-1H-pyrrolo[2,3-b]pyridin-5-yl)phenyl]-N-[6-methoxy-5-(trifluoromethyl)-3-pyridyl]acetamide] | 5.00 to 10.00 | 5.00 to 10.00 |
| COc1nn(C[C@H](C)O)cc1Nc1ncc(-c2ccc(CC(=O)Nc3cncc(C(F)(F)F)c3)c(F)c2)cn1 [Compound P-0050, 2-[2-fluoro-4-[2-[[1-[(2S)-2-hydroxypropyl]-3-methoxy-pyrazol-4-yl]amino]pyrimidin-5-yl]phenyl]-N-[5-(trifluoromethyl)-3-pyridyl]acetamide] | 5.00 to 10.00 | 5.00 to 10.00 |
| O=C(Cc1ccc(-c2cnc3c(c2)C2(CC2)C(=O)N3)cc1F)Nc1cncc(C(F)(F)F)c1 [Compound P-0064, 2-(2-fluoro-4-(2′-oxo-1′,2′-dihydrospiro[cyclopropane-1,3′-pyrrolo[2,3-b]pyridin]-5′-yl)phenyl)-N-(5-(trifluoromethyl)pyridin-3-yl)acetamide] | – | 5.00 to 10.00 |
| O=C(Cc1ccc(-c2cnc(Nc3cnn4ccccc34)nc2)cc1)Nc1cncc(C(F)(F)F)c1 [Compound P-0074, 2-[4-[2-(pyrazolo[1,5-a]pyridin-3-ylamino)pyrimidin-5-yl]phenyl]-N-[5-(trifluoromethyl)-3-pyridyl]acetamide] | 5.00 to 10.00 | – |
| O=C(Cc1cc(F)c(-c2cnc(Nc3cnn4ccccc34)nc2)cc1F)Nc1cncc(C(F)(F)F)c1 [Compound P-0075, 2-[2,5-difluoro-4-[2-(pyrazolo[1,5-a]pyridin-3-ylamino)pyrimidin-5-yl]phenyl]-N-[5-(trifluoromethyl)-3-pyridyl]acetamide] | 5.00 to 10.00 | – |
| Cn1cc(Nc2ncc(-c3ccc(CC(=O)NCc4ccccn4)c(F)c3)cn2)cn1 [Compound P-0088, 2-[2-fluoro-4-[2-[(1-methylpyrazol-4-yl)amino]pyrimidin-5-yl]phenyl]-N-(2-pyridylmethyl)acetamide] | – | 5.00 to 10.00 |
| Cn1cc(Nc2ncc(-c3ccc(CC(=O)NCc4ccc(C(F)(F)F)cn4)cc3)cn2)cn1 [Compound P-0162, 2-[4-[2-[(1-methylpyrazol-4-yl)amino]pyrimidin-5-yl]phenyl]-N-[[5-(trifluoromethyl)-2-pyridyl]methyl]acetamide] | – | 5.00 to 10.00 |
| Cn1cnc(Nc2ncc(-c3ccc(CC(=O)Nc4cc(C(C)(F)F)ccn4)cc3F)cn2)c1 [Compound P-0171, N-[4-(1,1-difluoroethyl)-2-pyridyl]-2-[3-fluoro-4-[2-[(1-methylimidazol-4-yl)amino]pyrimidin-5-yl]phenyl]acetamide] | – | 5.00 to 10.00 |

The next lines start with the values.

| pIC50 (FLT3-D835Y) | pIC50 (c-KIT) | Structure (SMILES) |
| --- | --- | --- |
| 5.00 to 10.00 | 5.00 to 10.00 | O=C(Cc1ccc(-c2cnc(Nc3cnn(C(F)F)c3)nc2)c(F)c1)Nc1cc(C(F)(F)F)ccn1 [Compound P-0024, 2-[4-[2-[[1-(difluoromethyl)pyrazol-4-yl]amino]pyrimidin-5-yl]-3-fluoro-phenyl]-N-[4-(trifluoromethyl)-2-pyridyl]acetamide] |
| 5.00 to 10.00 | 5.00 to 10.00 | COc1ncc(NC(=O)Cc2ccc(-c3cnc(Nc4cn[nH]c4)nc3)cc2)cc1C(F)(F)F [Compound P-0025, N-[6-methoxy-5-(trifluoromethyl)-3-pyridyl]-2-[4-[2-(1H-pyrazol-4-ylamino)pyrimidin-5-yl]phenyl]acetamide] |
| 5.00 to 10.00 | 5.00 to 10.00 | COc1ncc(NC(=O)Cc2ccc(-c3cnc(Nc4cn[nH]c4)nc3)cc2F)cc1C(F)(F)F [Compound P-0026, 2-[2-fluoro-4-[2-(1H-pyrazol-4-ylamino)pyrimidin-5-yl]phenyl]-N-[6-methoxy-5-(trifluoromethyl)-3-pyridyl]acetamide] |
| 5.00 to 10.00 | 5.00 to 10.00 | Cc1ncc(NC(=O)Cc2ccc(-c3cnc(Nc4cn[nH]c4)nc3)cc2F)cc1C(F)(F)F [Compound P-0027, 2-[2-fluoro-4-[2-(1H-pyrazol-4-ylamino)pyrimidin-5-yl]phenyl]-N-[6-methyl-5-(trifluoromethyl)-3-pyridyl]acetamide] |
| 5.00 to 10.00 | 5.00 to 10.00 | O=C(Cc1ccc(-c2cnc3[nH]cc(F)c3c2)cc1F)Nc1ccnc(C(F)(F)F)c1 [Compound P-0029, 2-[2-fluoro-4-(3-fluoro-1H-pyrrolo[2,3-b]pyridin-5-yl)phenyl]-N-[2-(trifluoromethyl)-4-pyridyl]acetamide] |
| – | 5.00 to 10.00 | O=C(Cc1ccc(-c2cnc3[nH]c(Cl)cc3c2)cc1F)Nc1ccnc(C(F)(F)F)c1 [Compound P-0030, 2-[4-(2-chloro-1H-pyrrolo[2,3-b]pyridin-5-yl)-2-fluoro-phenyl]-N-[2-(trifluoromethyl)-4-pyridyl]acetamide] |
| 5.00 to 10.00 | 5.00 to 10.00 | CC(=O)c1c[nH]c2ncc(-c3ccc(CC(=O)Nc4ccnc(C(F)(F)F)c4)c(F)c3)cc12 [Compound P-0031, 2-(4-(3-acetyl-1H-pyrrolo[2,3-b]pyridin-5-yl)-2-fluorophenyl)-N-(2-(trifluoromethyl)pyridin-4-yl)acetamide] |
| 5.00 to 10.00 | 5.00 to 10.00 | O=C(Cc1ccc(-c2cnc3[nH]cc(C(=O)C4CC4)c3c2)cc1F)Nc1ccnc(C(F)(F)F)c1 [Compound P-0032, 2-[4-[3-(cyclopropanecarbonyl)-1H-pyrrolo[2,3-b]pyridin-5-yl]-2-fluoro-phenyl]-N-[2-(trifluoromethyl)-4-pyridyl]acetamide] |
| 5.00 to 10.00 | 5.00 to 10.00 | O=C(Cc1ccc(-c2cnc(Nc3cnn4ccccc34)nc2)cc1F)Nc1ccnc(C(F)(F)F)c1 [Compound P-0033, 2-[2-fluoro-4-[2-(pyrazolo[1,5-a]pyridin-3-ylamino)pyrimidin-5-yl]phenyl]-N-[2-(trifluoromethyl)-4-pyridyl]acetamide] |
